# Tests used:
# barnyardgrass [1] = assay: Test A preemergence; type: in vivo, Echinochloa crus-galli; conditions: preemergence
# How it was run: (§1)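 Ratings express plant response from 0 (no effect) to 100 (complete control), judged visually against untreated controls after approximately 10 days in the greenhouse. Preemergence applications were made as directed soil sprays onto seeded loam–sand mix, and postemergence applications onto 2–10 cm plants at one- to two-leaf stage.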
# crabgrass, large [2] = assay: Test A preemergence; type: in vivo, Digitaria sanguinalis; conditions: preemergence; for Crabgrass, Large plant response rating (0 to 100 scale): 125 g ai/ha, visual injury approx. 10 days after treatment; for Crabgrass, Large plant response rating: 500 g ai/ha, visual injury after approx. 10 days, 0 to 100 scale (0 no effect, 100 complete control)
# How it was run: as §1
# foxtail, giant [3] = assay: Test A preemergence; type: in vivo, Setaria faberii; conditions: preemergence; for Foxtail, Giant plant response rating (0 to 100 scale): 125 g ai/ha, visual injury approx. 10 days after treatment; for Foxtail, Giant plant response rating: 500 g ai/ha, visual injury after approx. 10 days, 0 to 100 scale (0 no effect, 100 complete control)
# How it was run: as §1
# morningglory [4] = assay: Test A preemergence; type: in vivo, Ipomoea spp.; conditions: preemergence; for Morningglory plant response rating (0 to 100 scale): 125 g ai/ha, visual injury approx. 10 days after treatment; for Morningglory plant response rating: 500 g ai/ha, visual injury after approx. 10 days, 0 to 100 scale (0 no effect, 100 complete control)
# How it was run: as §1
# pigweed [5] = assay: Test A preemergence; type: in vivo, Amaranthus retroflexus; conditions: preemergence; for Pigweed plant response rating (0 to 100 scale): 125 g ai/ha, visual injury approx. 10 days after treatment; for Pigweed plant response rating: 500 g ai/ha, visual injury after approx. 10 days, 0 to 100 scale (0 no effect, 100 complete control)
# How it was run: as §1
# velvetleaf [6] = assay: Test A preemergence; type: in vivo, Abutilon theophrasti; conditions: preemergence; for Velvetleaf plant response rating (0 to 100 scale): 125 g ai/ha, visual injury approx. 10 days after treatment; for Velvetleaf plant response rating: 500 g ai/ha, visual injury after approx. 10 days, 0 to 100 scale (0 no effect, 100 complete control)
# How it was run: as §1
# wheat [7] = assay: Test A preemergence; type: in vivo, Triticum aestivum; conditions: preemergence; for Wheat plant response rating (0 to 100 scale): 125 g ai/ha, visual injury approx. 10 days after treatment; for Wheat plant response rating: 500 g ai/ha, visual injury after approx. 10 days, 0 to 100 scale (0 no effect, 100 complete control)
# How it was run: as §1
# corn [8] = assay: Test A preemergence; type: in vivo, Zea mays; conditions: preemergence; for Corn plant response rating (0 to 100 scale): 125 g ai/ha, visual injury approx. 10 days after treatment; for Corn plant response rating: 500 g ai/ha, visual injury after approx. 10 days, 0 to 100 scale (0 no effect, 100 complete control)
# How it was run: as §1
# barnyardgrass [9] = assay: Test A postemergence; type: in vivo, Echinochloa crus-galli
# How it was run: as §1
# crabgrass, large [10] = assay: Test A postemergence; type: in vivo, Digitaria sanguinalis
# How it was run: as §1
# foxtail, giant [11] = assay: Test A postemergence; type: in vivo, Setaria faberii
# How it was run: as §1
# morningglory [12] = assay: Test A postemergence; type: in vivo, Ipomoea spp.
# How it was run: as §1
# pigweed [13] = assay: Test A postemergence; type: in vivo, Amaranthus retroflexus
# How it was run: as §1
# velvetleaf [14] = assay: Test A postemergence; type: in vivo, Abutilon theophrasti
# How it was run: as §1
# wheat [15] = assay: Test A postemergence; type: in vivo, Triticum aestivum
# How it was run: as §1
# corn [16] = assay: Test A postemergence; type: in vivo, Zea mays
# How it was run: as §1
# rice = assay: Test B flood; type: in vivo, Oryza sativa; conditions: 250 g ai/ha, visual rating on 0 to 100 scale (0 no effect, 100 complete control), 13 to 15 days
# How it was run: (§2)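 2-leaf plants; pots flooded 3 cm over soil; compound added to paddy water, depth kept constant. Greenhouse 13–15 d. Visual rating vs controls, 0–100 scale (100 = complete control); dash = no result.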
# sedge, umbrella = assay: Test B flood; type: in vivo, Cyperus difformis; conditions: 250 g ai/ha, visual rating on 0 to 100 scale (0 no effect, 100 complete control), 13 to 15 days
# How it was run: as §2
# ducksalad = assay: Test B flood; type: in vivo, Heteranthera limosa; conditions: 250 g ai/ha, visual rating on 0 to 100 scale (0 no effect, 100 complete control), 13 to 15 days
# How it was run: as §2
# barnyardgrass [17] = assay: Test B flood; type: in vivo, Echinochloa crus-galli; conditions: 250 g ai/ha, visual rating on 0 to 100 scale (0 no effect, 100 complete control), 13 to 15 days
# How it was run: as §2
# [18] = 500 g ai/ha, visual injury after approx. 10 days, 0 to 100 scale (0 no effect, 100 complete control)
# [19] = Postemergence, 500 g ai/ha, 0 to 100 scale (0 no effect, 100 complete control)
# [20] = postemergence, 125 g ai/ha, about 10 days, visual rating on 0 to 100 scale (0 no effect, 100 complete control)
Structure (SMILES),Barnyardgrass plant response rating (barnyardgrass [1]; [18]),"Crabgrass, Large plant response rating (0 to 100 scale) (crabgrass, large [2])","Crabgrass, Large plant response rating (crabgrass, large [2])","Foxtail, Giant plant response rating (0 to 100 scale) (foxtail, giant [3])","Foxtail, Giant plant response rating (foxtail, giant [3])",Morningglory plant response rating (0 to 100 scale) (morningglory [4]),Morningglory plant response rating (morningglory [4]),Pigweed plant response rating (0 to 100 scale) (pigweed [5]),Pigweed plant response rating (pigweed [5]),Velvetleaf plant response rating (0 to 100 scale) (velvetleaf [6]),Velvetleaf plant response rating (velvetleaf [6]),Wheat plant response rating (0 to 100 scale) (wheat [7]),Wheat plant response rating (wheat [7]),Corn plant response rating (0 to 100 scale) (corn [8]),Corn plant response rating (corn [8]),Barnyardgrass plant response rating (barnyardgrass [9]; [19]),Barnyardgrass plant response rating (barnyardgrass [9]; [20]),"Crabgrass, Large plant response rating (crabgrass, large [10]; [19])","Crabgrass, Large plant response rating (crabgrass, large [10]; [20])","Foxtail, Giant plant response rating (foxtail, giant [11]; [19])",also measured
O=C(NC1CC1)c1cc(I)n(Cc2cccc(C(F)(F)F)c2)n1 [Compound 180],40,30,100,10,90,0,0,10,100,0,0,0,0,0,0,30,0,30,10,30,"Barnyardgrass plant response rating (0 to 100 scale, 0 is no effect, 100 is complete control) (barnyardgrass [1]; 125 g ai/ha, visual injury approx. 10 days after treatment): 0; Foxtail, Giant plant response rating (foxtail, giant [11]; [20]): 10; Morningglory plant response rating (morningglory [12]; [19]): 80; Morningglory plant response rating (morningglory [12]; [20]): 0; Pigweed plant response rating (pigweed [13]; [19]): 100; Pigweed plant response rating (pigweed [13]; [20]): 70; Velvetleaf plant response rating (velvetleaf [14]; [19]): 30; Velvetleaf plant response rating (velvetleaf [14]; [20]): 0; Wheat plant response rating (wheat [15]; [19]): 0; Wheat plant response rating (wheat [15]; [20]): 0; Corn plant response rating (corn [16]; [19]): 0; Corn plant response rating (corn [16]; [20]): 0; Plant response rating, Rice (rice): 0; Plant response rating, Sedge, Umbrella (sedge, umbrella): 0; Plant response rating, Ducksalad (ducksalad): 0; Plant response rating, Barnyardgrass (barnyardgrass [17]): 0"
O=C(NCC(F)(F)F)c1cc(Cl)n(Cc2cccc(C(F)(F)F)c2)n1 [Compound 170],0,10,70,0,50,0,0,0,60,0,0,0,0,0,0,30,10,30,20,10,"Barnyardgrass plant response rating (barnyardgrass [1]; 125 g ai/ha, visual injury, 0 to 100 scale, approx. 10 days): 0; Foxtail, Giant plant response rating (foxtail, giant [11]; [20]): 0; Morningglory plant response rating (morningglory [12]; [19]): 20; Morningglory plant response rating (morningglory [12]; [20]): 10; Pigweed plant response rating (pigweed [13]; [19]): 80; Pigweed plant response rating (pigweed [13]; [20]): 60; Velvetleaf plant response rating (velvetleaf [14]; [19]): 40; Velvetleaf plant response rating (velvetleaf [14]; [20]): 0; Wheat plant response rating (wheat [15]; [19]): 0; Wheat plant response rating (wheat [15]; [20]): 0; Corn plant response rating (corn [16]; [19]): 10; Corn plant response rating (corn [16]; [20]): 0; Plant response rating, Rice (rice): 0; Plant response rating, Sedge, Umbrella (sedge, umbrella): 0; Plant response rating, Ducksalad (ducksalad): 0; Plant response rating, Barnyardgrass (barnyardgrass [17]): 0"
